Data on three substances can be found in US20080226565A1, “Anticariogenic Proteins & Peptides & Saccharides” (priority 2004, published 2008).

Test [1] has as its system aerobes isolated from the oral cavity. The experiment in a line: Susceptibility (MIC), agar dilution, aerobes from the oral cavity. In kind it is cell-based, aerobic bacteria. The conditions noted are these: for activity against aerobes: explored range 0.2 to 3.5 mg/ml. How it is done:
(§1) The investigations included more than hundred strains isolated from the oral cavity: : anaerobes, microaerophilic bacteria, aerobes, Streptococcus spp. and yeast like fungi. The microorganisms were isolated from saliva, mucosal membrane, gingival pockets and caries decay. The susceptibility (MIC) of bacteria and yeastlike fungi were determined by means of plate dilution technique in agar.
(§2) The investigated samples were dissolved in sterile distilled water (immediately before the experiment) to obtain the following concentrations: 3.5, 1.7, 0.8, 0.4 and 0.2 mg/ml and were added into appropriate agar. The plates were inoculated using a Steers multipoint inoculator. Inoculum contained 10^6 CFU/spot. In each experimental series, the growth of strains on the culture medium without the compounds investigated was checked. The concentration at which no macroscopic growth of the microbes was observed on the medium was regarded as the lowest concentration, inhibiting the growth of microbes (MIC). The examinations of the susceptibility of microbes to the peptides were carried out twice.
Anaerobes. The susceptibility of bacteria was determined by means of the agar dilution methods with Brucella agar supplemented with 5% defibrinated sheep's blood, menadione and hemin. Sample solutions with concentrations from of 3.5-0.2 mg/ml were added into agar. The agar plate without investigated samples was included as a bacterial growth control. The inoculum of 10^6 CFU/ml was applied to the agar plates with Steers replicator. Incubation was performed for 48 hrs at 37° C. (310° K) in anaerobic jars containing a mixture of 10% CO2, 10% H2 and 80% N2, in the presence of palladium catalyst and indicator of anaerobiosis. Microaerophilic bacteria. The susceptibility of bacteria was determined by means of the agar dilution methods with Brucella agar supplemented with 5% sheep's blood. Samples solutions with concentrations from of 3.5- 0.2 mg/ml were added into agar. The agar plate without investigated samples was included as a bacterial growth control. The inoculum of 10^6 CFU/ml was applied to the agar plates with Steers replicator. The incubation was performed at 37° C. in anaerobic jars with Campy Pak (bio Merieux) for 48 hours. Streptococcus spp. The susceptibility of bacteria was determined by means of the agar dilution methods with Mueller-Hinton agar supplemented with 5% sheep's blood. Samples solutions with concentrations from of 3.5- 0.2 mg/ml were added into agar. The agar plate without investigated samples was included as a bacterial growth control. […] The susceptibility to investigated samples was determined by means of the plate dilution technique in Mueller-Hinton agar. […] The susceptibility of fungi to investigated samples was determined by means of the plate dilution technique in Sabouraud's agar. […]
Background: Agar dilution tests growth on a series of plates holding different concentrations.

Test [2] deals with microaerophilic bacteria isolated from the oral cavity. The experiment in a line: Susceptibility (MIC), agar dilution, microaerophilic bacteria. The format is cell-based. How it is done:
as §1
The investigated samples were dissolved in sterile distilled water (immediately before the experiment) to obtain the following concentrations: 3.5, 1.7, 0.8, 0.4 and 0.2 mg/ml and were added into appropriate agar. The plates were inoculated using a Steers multipoint inoculator. Inoculum contained 10^6 CFU/spot. […]
Anaerobes. The susceptibility of bacteria was determined by means of the agar dilution methods with Brucella agar supplemented with 5% defibrinated sheep's blood, menadione and hemin. […] The susceptibility of bacteria was determined by means of the agar dilution methods with Brucella agar supplemented with 5% sheep's blood. […] The susceptibility of bacteria was determined by means of the agar dilution methods with Mueller-Hinton agar supplemented with 5% sheep's blood. […] The susceptibility to investigated samples was determined by means of the plate dilution technique in Mueller-Hinton agar. […]

The subject of test [3] is anaerobes isolated from the oral cavity. The experiment in a line: Susceptibility (MIC), agar dilution, anaerobes from the oral cavity. The conditions noted are these: for activity against anaerobes: explored range 0.2 to 3.5 mg/ml. In kind it is cell-based, anaerobic bacteria. As for the experimental part: as §1, §2
Anaerobes. The susceptibility of bacteria was determined by means of the agar dilution methods with Brucella agar supplemented with 5% defibrinated sheep's blood, menadione and hemin. Sample solutions with concentrations from of 3.5-0.2 mg/ml were added into agar. The agar plate without investigated samples was included as a bacterial growth control. The inoculum of 10^6 CFU/ml was applied to the agar plates with Steers replicator. Incubation was performed for 48 hrs at 37° C. (310° K) in anaerobic jars containing a mixture of 10% CO2, 10% H2 and 80% N2, in the presence of palladium catalyst and indicator of anaerobiosis. Microaerophilic bacteria. The susceptibility of bacteria was determined by means of the agar dilution methods with Brucella agar supplemented with 5% sheep's blood. Samples solutions with concentrations from of 3.5- 0.2 mg/ml were added into agar. The agar plate without investigated samples was included as a bacterial growth control. The inoculum of 10^6 CFU/ml was applied to the agar plates with Steers replicator. The incubation was performed at 37° C. in anaerobic jars with Campy Pak (bio Merieux) for 48 hours. Streptococcus spp. The susceptibility of bacteria was determined by means of the agar dilution methods with Mueller-Hinton agar supplemented with 5% sheep's blood. Samples solutions with concentrations from of 3.5- 0.2 mg/ml were added into agar. The agar plate without investigated samples was included as a bacterial growth control. The inoculum of 10^6 CFU/ml was applied to the agar plates with Steers replicator. Incubation was performed for 24 hrs at 37° C. (310° K) in anaerobic jars containing a mixture of 10% CO2 and 90% N2. Aerobes. The susceptibility to investigated samples was determined by means of the plate dilution technique in Mueller-Hinton agar. Samples solutions with concentrations from of 3.5- 0.2 mg/ml were added into agar. The agar plate without investigated samples was included as a bacterial growth control. The inoculum of 10^6 CFU/ml was applied to the agar plates with Steers replicator. Plates were incubated for 24 hrs in 37° C. under aerobic conditions. Yeast like fungi. The susceptibility of fungi to investigated samples was determined by means of the plate dilution technique in Sabouraud's agar. Samples solutions with concentrations from of 3.5- 0.2 mg/ml were added into agar. […]

A short description of test [4]: In-vivo: residual protection, radiated samples after 5 days in oral cavity treated with acetic acid. Also on record: species or system human. The text has this: N: number of tooth samples A: hardness(μm) after radiation and 5 days residence in the oral cavity B: hardness after radiation and 5 days in the oral cavity and treatment with acetic acid
Test [5] in a line: In-vivo: radiated tooth samples treated with protector, 5 days in the oral cavity, Knoop hardness. Also on record: species or system human. The conditions noted are these: for delta: change of hardness (increase of depth of penetration): radiation + 5 days in oral cavity, 0.1% fluoride or 4% bisphosphonate e-polylysine with CaCl2 and KH2PO4. The text has this: A device is constructed that can contain up to 6 experimental tooth samples for positioning in the oral cavity. […] The construction of the experimental tooths samples is outlined in chapter C.2.“Results; in-vivo experiments”. In the oral cavity, the tooth samples are positioned in the device in such a way that the enamel surfaces are subjected to physical contact with the tongue and are submerged in saliva. […] In experiments where the device is residing a long time period in the oral cavity (5 days and more), a metal network is positioned just above the surface of the experimental teeth, in order to provide support for the bacteria and stimulate it's growth path. It is also possible to measure the residual protection competence by removing the tooth samples from the oral cavity at the end of the selected residence time and treating them with acid under laboratory conditions.
The device was positioned after the lower jaw in the oral cavity for a period of five days. After removal from the oral cavity, the samples where cleaned and the hardness was measured.
Tooth samples have been cut in horizontal slices (thickness: 0.3 to 1 mm) with a Leitz 1600 tooth cutter with horizontal cutting blade; the slices are cut manually (with a bore) into small tooth samples that contain a small part of the original tooth surface. The tooth sample is positioned in a small plastic tube, that has been cut from a long plastic tube with 6 mm external diameter. The length of the tube is 3 to 6 mm. The inner part of the tube is filled with a polymer that hardens under light (Photoclearfil Bright; Kuraray). The tooth sample is positioned in the soft polymer inside the tube, in such a way that the original tooth surface is just surfacing above the tube. Finally the polymer is hardened with a light source. The tooth surface is polished with Struers silicon carbid paper (800-4000) and the hardness is measured 5 times on each of the samples under the Letiz Wetzlar microscope (weight on needle: 50 p). Tooth samples with a maximum average depth of penetration of 43 μm are retained for use in the oral cavity.
Tooth samples have been subjected to a radiation dose that is equal to the amount that is given to patients with oral cancer (20 Gray) and have been sterilized. […] A drop of the solution was positioned on the tooth surface and allowed to reside for a period of 30 minutes at 37 C.; the procedure was repeated after removal of the drop with pressured air. Finally the drop was removed, the tooth was dried on air and fixed to the device. In total six tooth samples have been fixed to the device and positioned in the oral cavity after the lower jaw. It remained in the oral cavity for a period of 5 days (day and night). After completion of the required residence time, the device was removed from the oral cavity and the experimental teeth where separated from the device and washed. The hardness was measured according to the Knoop method, six times on each of the tooth samples.
B: the stage at which the hardness of the tooth surface has been measured with the Knoop method. (before the treatment; after radiation and before addition of protector formulation to the surface; after addition of protector to the surface of the tooth and after residing five days in the oral cavity).
B: the stage at which the hardness of the tooth surface has been measured with the Knoop method.

Regarding “Epsilon-polylysine (elys; e-polylysine) [Product 6]”, in test [1] (at 0.2 to 0.4 mg/ml, 2 from 17), the “aerobes harvested from the oral cavity that are inhibited” value was 12%. The substance also had an inhibitory concentration in test [2] (17 from 31 microaerophilic strains) of 0.2 mg/mL. In addition, the “anaerobes harvested from the oral cavity that are inhibited” value in test [3] (at 0.2 to 0.4 mg/ml, 17 from 24 species) turned out to be 71%. Besides, in test [3] (gram-negative anaerobes, often, incl. Prevotella nigrescens, Porphyromonas gingivalis, Fusobacterium nucleatum), the “mic-value (minimum inhibitory concentration)” value was ≤ 200 µg/mL.

With “bisphosphonylated epsilon-polylysine [bisphosphonylated e-polylysine]”, in test [4] (acetic acid 0.1N, 30 min, 37° C. after 5 days in oral cavity), the “C: B−A (increase of depth of penetration by acid)” value worked out at 3.9 μm. Moreover, the “B: hardness after radiation and 5 days in the oral cavity and treatment with acetic acid” value in test [4] (acetic acid 0.1N, pH 5, 30 min, 37° C.) turned out to be 44.5 μm. For the same substance, the “A: hardness after radiation and 5 days residence in the oral cavity” value in test [4] (samples later treated with acid) was 40.6 μm. For the same substance, the “Mean hardness (depth of penetration)” value in test [5] (after protector and 5 days oral cavity, 0.1% NaF or 4% bisphosphonate e-polylysine with CaCl2 and KH2PO4) worked out at 41.97 μm; in test [5] (after radiation, before addition of protector (baseline of group)), 41.02 μm; in test [5] (start, before treatment (baseline of group)), 40.87 μm. Besides, the “delta: change of hardness” value in test [5] (after radiation, before addition of the formulation) was found to be 0.15 μm. Besides, the results for the “delta: change of hardness (increase of depth of penetration)” value in test [5] (listed as bisphosphonate e-polylysine) and in test [5] (listed as bisphosphonylated epsilon-polylysine) were 1.10 μm and 1.1 μm, respectively. Besides, in test [1], the activity against aerobes result is “not active”. The mic value in test [2] (12 strains from 31 microaerophilic strains) came out at 0.2 mg/mL. Further, the activity against anaerobes result in test [3] is given as “good activity”.

As to “casein phosphopeptide epsilon-polylysine copolymer [(CPP x elys)n]”, the activity against aerobes entry in test [1] is “not active”. Also, the activity against anaerobes result in test [3] is recorded as “less effective”.
